Test results from patent US11173152B1, “Glutathione-coated nanoparticles for delivery of MKT-077 across the blood-brain barrier” (UNIVERSITY OF SOUTH FLORIDA, priority 2015, dated 2021).
Where two headings read alike, the source gives them in different places.

Tests used:
[1] = In vitro drug release (dialysis membrane, PBS pH 7.4); format: physicochemical; conditions: within the initial 4 hours; PBS pH 7.4, 37° C.
Description: The drug release profile of MKT from MKT NPs and MKT Glu-NPs was investigated using a method previously described by the current inventors in [14]. 0.05 mg equivalent of MKT aqueous solution, MKT NPs, and MKT Glu-NPs were placed in dialysis membrane tubing ([…]) and placed in 20 mL of release medium comprised of PBS (pH 7.4) stirring at 100 rpm and 37° C. 1 mL aliquots were removed at predetermined intervals over 7 days and analyzed by UV spectroscopy at wavelength of 492 nm (λmax) and compared to UV absorbance of standard aqueous dilutions of MKT drug (r^2=0.9943).

[2] = tested on: TRANSWELL in vitro BBB model, co-culture of RBE4 (rat brain endothelial) cells with C6 (rat astrocytoma) cells; test: In vitro BBB permeation model; format: in vitro ADME; conditions: end of the 48-hour study period, 10 μM equivalent, n=4
Description: A […] in vitro BBB model was established to study the BBB permeation of MKT NPs and MKT Glu-NPs compared to drug solution according to a method previously described by the current inventors in [18]. […] permeable inserts were treated with 0.1% rat tail collagen I on the apical and basolateral sides. After 24 hours, C6 (rat astrocytoma) cells were seeded onto the basolateral side of the permeable insert (5×10^4 cells). After 48 hours, RBE4 (rat brain endothelial) cells were seeded onto the apical side of the permeable (5×10^4 cells). Cells were bathed in 1:1 mixture of Ham's F10:MEM media supplemented with 10% FBS with 1.5 mL in the basolateral chamber and 0.5 mL in the apical chamber, and were allowed to incubate (37° C. and 5% CO2) for 24 hours until confluence was established.
After 24 hours, media was replaced with a 1:1 mixture of Ham's F10:MEM media supplemented with 1% FBS (experimental media), and cells were treated with 10 μM equivalent treatments of MKT aqueous drug solution, MKT NPs, and MKT Glu-NPs. 1 mL media samples were aliquoted from the basolateral chamber at predetermined intervals over a 48-hour period to investigate the trans-BBB permeation of the treatments. Aliquots were read by UV spectroscopy (at wavelength of 492 nm (λmax) and compared to UV absorbance of standard dilutions of MKT drug in experimental media (r^2=0.9990).

[3] = tested on: human tau in HeLa cells stably expressing human tau; test: Effect on tau level in a cellular AD model (Western blot); format: cell-based; conditions: 3 μM, 24 hours, GAPDH normalization
Description: AD model: HeLa cells stably expressing human tau were maintained in OPTIMEM media as described earlier. Treatment with nanoparticles or control were performed for 24 hours and samples analyzed by western blotting, as described earlier.
In order to determine whether the newly formulated MKT-NPs are active, a cellular AD HeLa cell model that stably expresses human tau was used. Cells were treated with 3 μM of MKT uncoated NPs or MKT Glu-NPS or drug in solution or various controls for 24 hours.

[4] = human subjects; cited from earlier work
[5] = blockage by the BBB; cited from earlier work
[6] = rat, in vivo; cited from earlier work
[7] = dog, in vivo; cited from earlier work

Structure (SMILES): CCn1c(=O)/c(=C2\Sc3ccccc3N2C)s/c1=C\c1cccc[n+]1CC.[Cl-] [MKT-077]
- drug released [1]: Approximately 100%
- drug permeated through the BBB model [2]: 20%
- reduction in tau levels [3]: greater and comparable reduction in tau levels
- renal toxicity [4]: irreversible renal toxicity
- brain permeation [5]: limited-to-no brain permeation
- renal toxicity [6]: irreversible renal toxicity
- renal toxicity [7]: irreversible renal toxicity
